Results: patent publication US7550603B2, “1H-benzimidazole-4-carboxamides substituted with a quaternary carbon at the 2-position are potent PARP inhibitors” (Abbott Laboratories Inc., priority 2005, dated 2009)
Where two headings read alike, the source gives them in different places. Marks after values point to notes of the source that are not given here.

Key:
[1] = molecular target: Recombinant Human Poly(ADP-Ribose) Polymerase (PARP) (Homo sapiens, UniProt P09874); assay: Inhibition of PARP (PARP1 assay, [3H]-NAD+ / biotinylated histone H1, FlashPlate); conditions: read-out: PARP Inhibition Ki; Table 1; quaternary and non-quaternary compounds
Protocol: Nicotinamide[2,5′,8-3H]adenine dinucleotide and strepavidin SPA beads were purchased from Amersham Biosiences (UK) Recombinant Human Poly(ADP-Ribose) Polymerase (PARP) purified from E. coli and 6-Biotin-17-NAD^+, were purchase from Trevigen, Gaithersburg, Md. NAD^+, Histone, aminobenzamide, 3-amino benzamide and Calf Thymus DNA (dcDNA) were purchased from Sigma, St. Louis, Mo. Stem loop oligonucleotide containing MCAT sequence was obtained from Qiagen. The oligos were dissolved to 1 mM in annealing buffer containing 10 mM Tris HCl pH 7.5, 1 mM EDTA, and 50 mM NaCl, incubated for 5 min at 95° C., and followed by annealing at 45° C. for 45 minutes. […] Biotinylated histone H1 was prepared by treating the protein with Sulfo-NHS-LC-Biotin from Pierce Rockford, Ill. The biotinylation reaction was conducted by slowly and intermittently adding 3 equivalents of 10 mM Sulfo-NHS-LC-Biotin to 100 μM Histone H1 in phosphate-buffered saline, pH 7.5, at 4° C. with gentle vortexing over 1 min followed by subsequent 4° C. incubation for 1 hr. Streptavidin coated (FlashPlate Plus) microplates were purchased from Perkin Elmer, Boston, Mass.
PARP1 assay was conducted in PARP assay buffer containing 50 mM Tris pH 8.0, 1 mM DTT, 4 mM MgCl2. […] Auto reactions utilizing SPA bead-based detection were carried out in 100 μl volumes in white 96 well plates.

[2] = tested on: Female BALB/c mice; assay: Deaths following lipopolysaccharide (LPS) challenge; format: in vivo; conditions: 20 mg/kg LPS intravenous, monitored 72 hours
Protocol: Female BALB/c mice were dosed orally, twice a day with vehicle (0.2% HPMC), or drug at 30 mg/kg/day or 100 mg/kg/day. The mice were injected intravenous with 20 mg/kg LPS at 30 minutes after the first treatment dose. They were monitored for survival for 72 hours or until 80-90% lethality was observed.

[3] = tested on: peritoneum following zymosan challenge; conditions: peritoneal lavage four hours post zymosan (2 mg/animal)
Protocol: Compounds were administered orally before an intraperitoneal zymosan injection (2 mg/animal).

[4] = 30 mg/kg/day orally twice a day
[5] = 100 mg/kg/day orally twice a day

Recombinant Human Poly(ADP-Ribose) Polymerase (PARP), sequence (P09874 whole entry): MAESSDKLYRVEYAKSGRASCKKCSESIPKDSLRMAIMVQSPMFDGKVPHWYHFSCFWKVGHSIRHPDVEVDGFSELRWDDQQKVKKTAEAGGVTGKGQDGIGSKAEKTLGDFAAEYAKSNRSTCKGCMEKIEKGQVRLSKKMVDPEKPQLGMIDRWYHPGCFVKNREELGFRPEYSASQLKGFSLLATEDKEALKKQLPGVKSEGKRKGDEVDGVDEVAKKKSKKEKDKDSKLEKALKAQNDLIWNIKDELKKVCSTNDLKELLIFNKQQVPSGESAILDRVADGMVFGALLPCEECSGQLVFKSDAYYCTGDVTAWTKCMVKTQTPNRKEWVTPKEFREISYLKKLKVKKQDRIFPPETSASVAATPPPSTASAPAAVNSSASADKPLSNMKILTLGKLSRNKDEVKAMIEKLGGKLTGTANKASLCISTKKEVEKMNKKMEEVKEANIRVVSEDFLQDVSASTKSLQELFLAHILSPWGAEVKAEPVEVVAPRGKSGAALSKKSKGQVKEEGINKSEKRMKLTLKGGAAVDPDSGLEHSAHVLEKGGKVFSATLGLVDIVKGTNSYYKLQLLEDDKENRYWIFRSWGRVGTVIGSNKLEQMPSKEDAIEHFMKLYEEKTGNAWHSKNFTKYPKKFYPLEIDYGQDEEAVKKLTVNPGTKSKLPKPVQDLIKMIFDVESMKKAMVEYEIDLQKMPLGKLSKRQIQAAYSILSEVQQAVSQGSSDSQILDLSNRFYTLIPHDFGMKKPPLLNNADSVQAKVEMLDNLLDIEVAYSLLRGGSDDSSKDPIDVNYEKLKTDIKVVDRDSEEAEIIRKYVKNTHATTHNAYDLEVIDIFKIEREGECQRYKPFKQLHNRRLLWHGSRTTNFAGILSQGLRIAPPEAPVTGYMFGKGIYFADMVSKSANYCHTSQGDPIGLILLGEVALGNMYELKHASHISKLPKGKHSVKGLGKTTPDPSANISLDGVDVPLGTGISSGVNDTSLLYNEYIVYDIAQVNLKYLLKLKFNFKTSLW

Ki [1]	SMILES	Deaths following LPS challenge (lethality) [2, 4]	Deaths following LPS challenge (lethality) [2, 5]	Percent decrease in Cell Influx relative to control ([3]; 30 mg/kg orally)	Percent decrease in IL-1 level relative to control ([3]; 30 mg/kg orally)	Percent decrease in Cell Influx relative to control ([3]; 100 mg/kg orally)	Percent decrease in IL-1 level relative to control ([3]; 100 mg/kg orally)
9.1 nM	NC(=O)c1cccc2[nH]c(C3CCN(CCc4ccccc4)C3)nc12 (stereo not shown) [2-[1-(2-phenylethyl)pyrrolidin-3-yl]-1H-benzimidazole-4-carboxamide]						
	CCCN1CCC(c2nc3c(C(N)=O)cccc3[nH]2)CC1 [2-(1-propylpiperidin-4-yl)-1H-benzimidazole-4-carboxamide]	8/10	9/10	0%	32%	23%	47%*
34 nM	NC(=O)c1cccc2[nH]c(C3CCN3)nc12 (stereo not shown) [2-azetidin-2-yl-1H-benzimidazole-4-carboxamide]						
	C[C@@]1(c2nc3c(C(N)=O)cccc3[nH]2)CCCN1 [Example 4, 2-[(2S)-2-methylpyrrolidin-2-yl]-1H-benzimidazole-4-carboxamide]	8/10	4/10*				
